{"source": "ChEMBL document CHEMBL4321806", "about": "(J Med Chem, 2019)", "key": {"[1]": {"molecular_target": "T1, Broad substrate specificity ATP-binding cassette transporter ABCG2 (Homo sapiens, UniProt Q9UNQ0)", "T1 sequence (Q9UNQ0 whole entry)": "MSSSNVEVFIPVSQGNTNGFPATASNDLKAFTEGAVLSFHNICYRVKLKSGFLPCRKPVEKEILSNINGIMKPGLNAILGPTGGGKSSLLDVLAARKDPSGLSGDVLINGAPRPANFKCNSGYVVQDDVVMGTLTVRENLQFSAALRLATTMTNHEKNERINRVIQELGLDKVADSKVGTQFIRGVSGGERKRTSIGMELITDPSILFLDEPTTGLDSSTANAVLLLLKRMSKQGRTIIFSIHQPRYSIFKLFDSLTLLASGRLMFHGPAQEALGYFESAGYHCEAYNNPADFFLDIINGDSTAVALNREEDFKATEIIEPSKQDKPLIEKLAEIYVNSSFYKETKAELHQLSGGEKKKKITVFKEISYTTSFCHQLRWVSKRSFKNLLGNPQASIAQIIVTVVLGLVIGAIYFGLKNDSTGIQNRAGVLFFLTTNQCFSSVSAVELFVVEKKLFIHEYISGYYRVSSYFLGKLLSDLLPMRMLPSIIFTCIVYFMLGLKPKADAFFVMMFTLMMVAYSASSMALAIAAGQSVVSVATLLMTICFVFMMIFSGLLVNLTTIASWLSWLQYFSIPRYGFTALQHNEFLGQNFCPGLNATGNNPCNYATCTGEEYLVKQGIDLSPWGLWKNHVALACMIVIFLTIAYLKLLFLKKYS", "test": "Inhibition of BCRP (unknown origin)"}, "NIH3T3": {"tested_on": "NIH3T3", "test": "Cytotoxicity against mouse 3T3 cells assessed as reduction in cell viability", "format": "cell-based"}, "HFF-1": {"tested_on": "HFF-1", "test": "Cytotoxicity against human HFF1 cells assessed as reduction in cell viability", "format": "cell-based"}, "[2]": {"molecular_target": "T1, Broad substrate specificity ATP-binding cassette transporter ABCG2", "test": "Inhibition of BCRP (unknown origin) expressed in human HEK293/R2 cells assessed as increase in intracellular topotecan accumulation by measuring fold change at 1 uM after 120 mins in presence of topotecan by flow cytometry analysis relative to control", "conditions": "2 h"}, "Homo sapiens": {"species": "Homo sapiens", "test": "Effect on BCRP protein expression in human HEK293/R2 cells at 1 to 3 uM after 4 days by flow cytometric analysis", "format": "functional, cell-based"}, "HEK293 [3]": {"tested_on": "HEK293", "test": "Effect on intracellular topotecan level in human HEK293 cells at 5 uM up to 15 mins by flow cytometric analysis", "format": "functional, cell-based"}, "[4]": {"molecular_target": "T1, Broad substrate specificity ATP-binding cassette transporter ABCG2", "test": "Inhibition of vanadate sensitive BCRP ATPase activity in human S1-M1-80 cell membranes preincubated for 30 mins followed by ATP addition and measured after 1 hr by colorimetric assay"}, "[5]": {"test": "Cytotoxicity against mouse L929 cells assessed as reduction in cell viability"}, "HEK293 [6]": {"tested_on": "HEK293", "test": "Cytotoxicity against human HEK293 cells assessed as reduction in cell viability after 5 days by MTS/PMS assay", "format": "cell-based", "conditions": "HEK293, 120 h"}, "2008": {"tested_on": "2008", "test": "Antiproliferative activity against human 2008 cells assessed as reduction in cell viability after 5 days by MTS/PMS assay", "format": "functional, cell-based", "conditions": "Homo sapiens, 2008, 120 h"}, "[7]": {"test": "Antiproliferative activity against human LCC6 cells assessed as reduction in cell viability after 5 days by MTS/PMS assay", "format": "functional, cell-based", "conditions": "LCC-6, 120 h"}}, "note": "Active and inactive are the calls of the source. No cut-off for these calls is given here."}
{"molecule": "COc1ccc2c3c([nH]c2c1)[C@H](C=C(C)C)N1C(=O)[C@@H]2CCCN2C(=O)[C@@H]1C3", "note": "[FUMITREMORGIN]", "values": [{"measurement": "EC50", "setting": "[1]", "result": "1 to 5", "unit": "µM"}]}
{"molecule": "COC(=O)c1cccc(COc2c(-c3ccc(OCCOCCn4cc(-c5cccc(-c6cn(CCOCCOc7ccc(-c8oc9ccccc9c(=O)c8OCc8cccc(C(=O)OC)c8)cc7)nn6)c5)nn4)cc3)oc3ccccc3c2=O)c1", "values": [{"measurement": "IC50", "setting": "NIH3T3", "result": "> 100", "unit": "µM"}, {"measurement": "IC50", "setting": "HFF-1", "result": "> 100", "unit": "µM"}, {"measurement": "FC", "setting": "[2]", "result": "11 to 12"}, {"measurement": "Activity", "setting": "Homo sapiens", "result": "inactive"}, {"measurement": "Activity", "setting": "HEK293 [3]", "result": "inactive"}, {"measurement": "inhibition (INH)", "setting": "[4]", "result": "Dose-dependent effect"}, {"measurement": "IC50", "setting": "[5]", "result": "> 100", "unit": "µM"}]}
{"molecule": "COC(=O)c1cccc(COc2c(-c3ccc(OCCOCCOCCn4cc(-c5ccc(-c6cn(CCOCCOCCOc7ccc(-c8oc9ccccc9c(=O)c8OCc8cccc(C(=O)OC)c8)cc7)nn6)cc5)nn4)cc3)oc3ccccc3c2=O)c1", "values": [{"measurement": "IC50", "setting": "NIH3T3", "result": "> 100", "unit": "µM"}, {"measurement": "IC50", "setting": "HFF-1", "result": "> 100", "unit": "µM"}, {"measurement": "IC50", "setting": "[5]", "result": "> 100", "unit": "µM"}]}
{"molecule": "COC(=O)c1cccc(COc2c(-c3ccc(OCCOCCOCCn4cc(CN(Cc5ccccc5)Cc5cn(CCOCCOCCOc6ccc(-c7oc8ccccc8c(=O)c7OCc7cccc(C(=O)OC)c7)cc6)nn5)nn4)cc3)oc3ccccc3c2=O)c1", "values": [{"measurement": "IC50", "setting": "NIH3T3", "result": "> 100", "unit": "µM"}, {"measurement": "IC50", "setting": "HFF-1", "result": "> 100", "unit": "µM"}, {"measurement": "IC50", "setting": "[5]", "result": "> 100", "unit": "µM"}]}
{"molecule": "O=C1c2c(O)ccc(O)c2C(=O)c2c(NCCNCCO)ccc(NCCNCCO)c21", "note": "[MITOXANTRONE]", "values": [{"measurement": "IC50", "setting": "HEK293 [6]", "result": 0.0117, "unit": "µM"}, {"measurement": "IC50", "setting": "2008", "result": 0.0078, "unit": "µM"}, {"measurement": "IC50", "setting": "[7]", "result": 0.0374, "unit": "µM"}]}
{"molecule": "COC(=O)c1cccc(COc2c(-c3ccc(OCCOCCOCCn4cc(-c5cccc(-c6cn(CCOCCOCCOc7ccc(-c8oc9ccccc9c(=O)c8OCc8cccc(C(=O)OC)c8)cc7)nn6)c5)nn4)cc3)oc3ccccc3c2=O)c1", "values": [{"measurement": "IC50", "setting": "NIH3T3", "result": "> 100", "unit": "µM"}, {"measurement": "IC50", "setting": "HFF-1", "result": "> 100", "unit": "µM"}, {"measurement": "IC50", "setting": "[5]", "result": "> 100", "unit": "µM"}]}
{"molecule": "COc1cc2c(cc1OC)CN(CCc1ccc(NC(=O)c3cc(OC)c(OC)cc3NC(=O)c3cnc4ccccc4c3)cc1)CC2", "values": [{"measurement": "EC50", "setting": "[1]", "result": 0.1, "unit": "µM"}]}
{"molecule": "COC(=O)c1cccc(COc2c(-c3ccc(OCCOCCn4cc(CCCc5cn(CCOCCOc6ccc(-c7oc8ccccc8c(=O)c7OCc7cccc(C(=O)OC)c7)cc6)nn5)nn4)cc3)oc3ccccc3c2=O)c1", "values": [{"measurement": "IC50", "setting": "NIH3T3", "result": "> 100", "unit": "µM"}, {"measurement": "IC50", "setting": "HFF-1", "result": "> 100", "unit": "µM"}, {"measurement": "IC50", "setting": "[5]", "result": "> 100", "unit": "µM"}]}
{"molecule": "COC(=O)c1cccc(COc2c(-c3ccc(OCCOCCn4cc(CN(Cc5ccccc5)Cc5cn(CCOCCOc6ccc(-c7oc8ccccc8c(=O)c7OCc7cccc(C(=O)OC)c7)cc6)nn5)nn4)cc3)oc3ccccc3c2=O)c1", "values": [{"measurement": "IC50", "setting": "NIH3T3", "result": "> 100", "unit": "µM"}, {"measurement": "IC50", "setting": "HFF-1", "result": "> 100", "unit": "µM"}, {"measurement": "IC50", "setting": "[5]", "result": "> 100", "unit": "µM"}]}
{"molecule": "COC(=O)c1cccc(COc2c(-c3ccc(OCCOCCn4cc(COCc5cn(CCOCCOc6ccc(-c7oc8ccccc8c(=O)c7OCc7cccc(C(=O)OC)c7)cc6)nn5)nn4)cc3)oc3ccccc3c2=O)c1", "values": [{"measurement": "IC50", "setting": "NIH3T3", "result": "> 100", "unit": "µM"}, {"measurement": "IC50", "setting": "HFF-1", "result": "> 100", "unit": "µM"}, {"measurement": "IC50", "setting": "[5]", "result": "> 100", "unit": "µM"}]}
